Results published in US9204630B2, “Capsule formulation” (Syngenta Participations AG, priority 2005, dated 2015).

Assay: Screen of EC formulations for substances that photoprotect emamectin benzoate
Format: physicochemical
Set-up: key: #1 represents no improvement; #3 represents those photoprotectants that conferred a significant improvement in photostability
Conditions: performance of the photostabiliser relative to the non-photostabilised EC; 2% w/w emamectin benzoate EC, photoprotectant to insecticide 1:1; deposits on glass irradiated in Suntest, HPLC-MS
Procedure: The photoprotectant to be screened was either dissolved or dispersed in a simple Solvesso 200 based EC formulation containing 2% w/w emamectin benzoate, 10% w/w Soprophor BSU and 3% w/w phenyl sulfonate calx. The weight ratio of photoprotectant to insecticide was 1:1.
The ECs were diluted in water to the typical field application rate of emamectin benzoate, 10 g ai/ha at a spray volume of 200 l/ha. 2 μl droplets were applied to clean glass microscope slides and allowed to dry prior to being irradiated in an Atlas XLS+ Suntest artificial sunlight simulator, which employs a filtered xenon light source providing a spectral energy distribution similar to natural outdoor exposure. After irradiation, deposits were removed from the glass slides by a solvent wash and quantified by high performance liquid chromatography (HPLC) with mass-spectrometric (MS) detection.

## Cc1cc(N=Nc2ccc(N=Nc3c(O)ccc4ccccc34)c(C)c2)ccc1O [Example 1O, 1-[[2-methyl-4-[(2-methylphenol)azo]phenyl]azo]-2-naphthalenol]
  Screen Result: 3

## Oc1ccc(N=Nc2ccc(N=Nc3ccccc3)c3ccccc23)cc1 [Example 1E, 4-[[4-(phenylazo)-1-naphthalenyl]azo]-phenol]
  Screen Result: 3

## CC1(C)Nc2cccc3c(N=Nc4ccc(N=Nc5ccccc5)c5ccccc45)ccc(c23)N1 [Example 1M, 2,3-dihydro-2,2-dimethyl-6-[[4-(phenylazo)-1-naphthalenyl]azo]-1H-perimidine]
  Screen Result: 3

## CC(C)Nc1ccc(NC(C)C)c2c1C(=O)c1ccccc1C2=O [Example 1B, 1,4-bis[(1-methylethyl)amino]-9,10-anthracenedione]
  Screen Result: 3

## Nc1ccc(N=Nc2ccc([N+](=O)[O-])cc2)cc1 [Example 1G, 4-[(4-nitrophenyl)azo]-benzenamine]
  Screen Result: 3

## 1-[[4-[(dimethylphenyl)azo]dimethylphenyl]azo]-2-naphthalenol [Example 1I]
  Screen Result: 3

## Oc1ccc2ccccc2c1N=Nc1ccccc1 [Example 1N, 1-(phenylazo)-2-naphthalenol]
  Screen Result: 3

## Cc1cc(S(=O)(=O)[O-])ccc1N=Nc1c(O)ccc2ccccc12.[Na+] [Example 1C, monosodium 4-[(2-hydroxy-1-naphthalenyl)azo]-3-methyl-benzenesulfonate]
  Screen Result: 3

## O=[N+]([O-])c1ccc(N=Nc2ccc(Nc3ccccc3)cc2)cc1 [Example 1D, 4-[(4-nitrophenyl)azo]-N-phenyl-benzenamine]
  Screen Result: 3

## Oc1ccc2ccccc2c1N=Nc1ccc(N=Nc2ccccc2)cc1 [Example 1K]
  Screen Result: 3

## Cc1ccccc1N=Nc1c(O)ccc2ccccc12 [Example 1J, 1-(ortho-tolylazo)-2-naphthol]
  Screen Result: 3

## COc1ccc(C=C(C(=O)OC2CC(C)(C)N(C)C(C)(C)C2)C(=O)OC2CC(C)(C)N(C)C(C)(C)C2)cc1 [Example 1R, propanedioic acid, [(4-methoxy-phenyl)-methylene]-, bis(1,2,2,6,6-pentamethyl-4-piperidinyl)ester]
  Screen Result: 3

## Nc1c(S(=O)(=O)[O-])cc(Nc2ccccc2)c2c1C(=O)c1ccccc1C2=O.[Na+] [Example 1A, monosodium 1-amino-9,10-dihydro-9,10-dioxo-4-(phenylamino)-2-anthracenesulfonate]
  Screen Result: 3

## Cc1ccccc1N=Nc1cc(C)c(N=Nc2c(O)ccc3ccccc23)cc1C [Example 1H, 1-[[2,5-dimethyl-4-[(2-methylphenol)azo]phenyl]azo]-2-naphthalenol]
  Screen Result: 3

## CCN(CCC#N)c1ccc(N=Nc2ccc([N+](=O)[O-])cc2)cc1 [Example 1F, 3-[ethyl[4-[(4-nitrophenyl)azo]phenyl]amino]-propanenitrile]
  Screen Result: 3

## CC(C)(C)CC(C)(C)c1ccc([O-])c(Sc2cc(C(C)(C)CC(C)(C)C)ccc2[O-])c1.CCCCN.[Ni+2] [Example 1S, 2,2′-thiobis[4-t-octylphenolato]-beta-butylamine nickel (II)]
  Screen Result: 3
